Data taken from publication PMC4920374 (Bioorganic & medicinal chemistry, 2016).
Read-outs that look alike come from different tables or passages of the source. Values belong to the compound of their own block, whether it stands above or below them.

Key:
[1] = system: KB (epidermoid carcinoma of the nasopharynx); assay: Antiproliferative SRB assay, KB; type: cell-based, human
[2] = system: KB-vin (vincristine-resistant KB subline); assay: Antiproliferative SRB assay, KB-vin; type: cell-based, human
[3] = system: Mer TK; details: cited from earlier work
[4] = system: DU145 (prostate cancer); assay: Antiproliferative SRB assay, DU145; type: cell-based; details: Homo sapiens, DU-145, read-out: GI50 DU145
[5] = system: A549 (human lung carcinoma); assay: Antiproliferative SRB assay, A549; type: cell-based; details: A549, read-out: GI50 A549
[6] = paclitaxel reference, values in nM

GI50 KB ([1]; SRB): >31300 nM
GI50 KB-vin ([2]; SRB): >31300 nM
Structure (SMILES): N#Cc1ccc(Nc2nc(NC3CCCC3)c3ccccc3n2)cc1 [6a, 2-(4-Cyanophenyl)amino-4-(N-cyclopentyl)aminoquinazoline]

GI50 KB ([1]; SRB): 19700 nM
GI50 KB-vin ([2]; SRB): 18700 nM
Structure (SMILES): Nc1ccc(Nc2nc(NCCCO)c3ccccc3n2)cc1 [7b]

GI50 KB ([1]; SRB): 17100 nM
GI50 KB-vin ([2]; SRB): 24200 nM
Structure (SMILES): OCCCNc1nc(Nc2ccc(F)cc2)nc2ccccc12 [7c, 2-(4-Fluorophenyl)amino-4-(3-hydroxypropyl)aminoquinazoline]

Structure (SMILES): CC(C)n1cnc2/c(=N/c3cccc(Cl)c3)nc(NCCO)[nH]c21 [C-52]
Mer inhibitory potency ([3]; literature Mer inhibitors): weak

GI50 KB [1, 6]: 2.6 nM
GI50 [4]: 0.0026 µM
GI50 KB-vin [2, 6]: 948 nM
GI50 [5]: 0.0049 µM
Structure (SMILES): CC(=O)O[C@H]1C(=O)[C@@]2(C)[C@H]([C@H](OC(=O)c3ccccc3)[C@]3(O)C[C@H](OC(=O)[C@H](O)[C@@H](NC(=O)c4ccccc4)c4ccccc4)C(C)=C1C3(C)C)[C@]1(OC(C)=O)CO[C@@H]1C[C@@H]2O [Paclitaxel]

Structure (SMILES): CCCCNc1ncc2c(-c3ccc(F)cc3)nn(CC3CCC(N)CC3)c2n1 (stereo not shown) [UNC569]
Mer inhibitory potency [3]: subnanomolar

Structure (SMILES): CCCCNc1ncc(C(=O)NCc2ccc(-n3ccnc3)cc2)c(NC2CCC(O)CC2)n1 (stereo not shown) [UNC2881]
Mer inhibitory potency [3]: subnanomolar
